Test results taken from patent US6025343A, “Lipid esters of nucleoside monophosphates and their use as immunosuppressive drugs” (Roche Diagnostics GmbH, priority 1994, dated 2000).
pIC50: −log10 of the molar value. Where two headings read alike, the source gives them in different places.

Tests used:
L 1210 leukemia = test: Influence on the L 1210 leukemia in vivo: survival time; parameters: species or system mice
Method: Mice were inoculated with L 1210 leukemia cells on day 0 (n=10 animals/group) and w ere then treated once daily i.p. from day 0 (+1 h)-day +41 (6 weeks) with the weekly cycles indicated on FIGS. 1 and 2, respectively.

[1] = system: murine bone marrow stern cells, colony-forming units/granulocytes-macrophages (CFU-GM); test: CFU-GM assay, in vitro cytotoxicity / bone marrow toxicity; type: cell-based; settings: for pIC50 / IC50: Mus musculus, in vitro; for pIC50: mean, Example 10, read-out: Bone marrow toxicity CFU-GM, mean IC50; for IC50: mean ± SEM, Example 7, read-out: IC50 CFU-GM
Method: (§1) The cytostatic/cytotoxic compound Doxorubicin was also included as reference substance. All compounds were tested in 3-6 different experiments concentration dependently with,at least, doublicate or triplicate inclubations per concentration tested.
(§2) For assay conditions, please refer to description of Example 7.

[2] = system: murine bone marrow stern cells, colony-forming units/erythrocytes (CFU-E); test: CFU-E assay, in vitro cytotoxicity / bone marrow toxicity; type: cell-based; settings: for pIC50 / IC50: Mus musculus, Erythrocyte; for pIC50: mean, Example 10, read-out: Bone marrow toxicity CFU-E, mean IC50; for IC50: mean ± SEM, Example 7, read-out: IC50 CFU-E
Method: as §1, §2

[3] = 5-FU-DMDOPE compared to 5-FU, table

Compound | pIC50 ([1]; CFU-GM) | pIC50 ([2]; in vitro) | IC50 ([1]; CFU-GM) | IC50 ([2]; in vitro) | further results
O=c1[nH]c(=O)n([C@@H]2O[C@H](CO)[C@@H](O)[C@H]2O)cc1F [Example 5-FU, 5-Fluorouridine, reference compound] | 8.30 | 9.21 |  |  | dose-efficacy profile (L 1210 leukemia; i.p. once daily, weekly cycles, day 0 (+1 h)-day +41, FIG. 2): very narrow dose-efficacy profile; survival rates on increasing the dose (L 1210 leukemia; i.p., from 2×10/5×0.1 to 2×10/5×0.3 mg kg^-1 day^-1 or even higher doses, FIG. 2): reduced survival rates
CCCCCCCCCCCCSCC(COP(=O)(O)OC[C@H]1O[C@@H](n2cnc3c(S)ncnc32)[C@H](O)[C@@H]1O)OCCCCCCCCCC (stereo partly drawn) [Example 6-MPR-DMDOPE, (6-Mercaptopurine-9-β-D-ribofuranoside)-5'-phosphoric acid (3-dodecylmercapto-2-decyloxy) propyl ester] |  |  | 247 ng/mL | 56 ng/mL | tolerability by bone marrow stem cells ([2]; in vitro, CFU-E and CFU-GM, compared to Azathioprine, 6-MP, 6-Mercaptopurinriboside, Doxorubicin): much better tolerated by the bone marrow stern cells compared to all other compounds tested
COc1cccc2c1C(=O)c1c(O)c3c(c(O)c1C2=O)C[C@@](O)(C(=O)CO)C[C@@H]3O[C@H]1C[C@H](N)[C@H](O)[C@H](C)O1 [Doxorubicin, reference compound] |  |  | 50 ng/mL | 1.7 ng/mL | 
CCCCCCCCCCCCSCC(COP(=O)(O)OC[C@H]1O[C@@H](n2cc(F)c(=O)[nH]c2=O)[C@H](O)[C@@H]1O)OCCCCCCCCCC (some centres unmarked) [Example 5-FU-DMDOPE, (5-Fluorouridine) -5'-phosphoric acid (3-dodecylmercapto 2 decyloxy) propyl ester] | 5.93 | 6.43 |  |  | therapeutic index/ratio compared to 5-FU (L 1210 leukemia; concluded from efficacy (FIGS. 1 and 2) and bone marrow toxicity): much higher therapeutic index/ratio; survival time compared to control I and II (L 1210 leukemia; i.p. once daily, weekly cycles, day 0 (+1 h)-day +41, FIG. 1): clear dose-dependent increase in survival time; efficacy compared to 5-FU (L 1210 leukemia; leukemia model, equimolar doses, FIGS. 1 and 2): clearly more effective; Bone marrow toxicity CFU-GM, ratio to 5-FU [1, 3]: 238 ×; less toxic on granulocyte/macrophage bone marrow stem cells compared to 5-FU ([1]; CFU-GM): 238 times; Bone marrow toxicity CFU-E, ratio to 5-FU [2, 3]: 610 ×; less toxic on erythrocyte bone marrow stem cells compared to 5-FU ([2]; CFU-E): 610 times; toxicity on bone marrow cells compared to 5-FU ([2]; in words, CFU-E and CFU-GM): much less toxic on bone marrow cells
OC[C@H]1O[C@@H](n2cnc3c(S)ncnc32)[C@H](O)[C@@H]1O [6-Mercaptopurinriboside, reference compound] |  |  | 2.3 ng/mL | 0.3 ng/mL | 
Sc1ncnc2nc[nH]c12 [6-Mercaptopurine, reference compound] |  |  | 2.3 ng/mL | 0.3 ng/mL | 
